ChEMBL document CHEMBL1142270, “Synthesis, thermal stability, antimalarial activity of symmetrically and asymmetrically substituted tetraoxanes” (Bioorg Med Chem Lett, 2008)
The source made the active and inactive calls. The rule behind the calls is not given here.

What was measured:
Plasmodium falciparum [1] = experiment: Antimalarial activity against Plasmodium falciparum D6 in parasite LDH assay to 16.72 uM; assay type: functional, organism-based
Plasmodium falciparum [2] = experiment: Antimalarial activity against Plasmodium falciparum W2 in parasite LDH assay to 16.72 uM; assay type: functional, organism-based
Plasmodium falciparum [3] = experiment: Antimalarial activity against Plasmodium falciparum D6 in parasite LDH assay; assay type: functional, organism-based
[4] = Selectivity index, ratio of IC50 for African green monkey (Cercopithecus aethiops) Vero cells to IC50 for Plasmodium falciparum D6; assay type: functional
Plasmodium falciparum [5] = experiment: Antimalarial activity against Plasmodium falciparum W2 in parasite LDH assay; assay type: functional, organism-based
[6] = Selectivity index, ratio of IC50 for african green monkey (Cercopithecus aethiops) Vero cells to IC50 for Plasmodium falciparum W2; assay type: functional
Vero = experiment: Cytotoxicity against african green monkey Vero cells by neutral red assay upto 16.72 uM; assay type: cell-based; settings: chlorocebus sabaeus

SMILES | Activity (Plasmodium falciparum [1]) | Activity (Plasmodium falciparum [2]) | IC50 (Plasmodium falciparum [3]) | Ratio IC50 [4] | IC50 (Plasmodium falciparum [5]) | Ratio IC50 [6] | Activity (Vero)
FC(F)(F)c1ccc(C2OOC(c3ccc(C(F)(F)F)cc3)OO2)cc1 (stereo not given) | inactive | inactive |  |  |  |  | 
Brc1ccc(C2OOC3(CCCC3)OO2)cc1 | inactive | inactive |  |  |  |  | 
Clc1ccc(C2OOC(c3ccc(Cl)cc3)OO2)cc1 (stereo not given) |  |  | 4470 nM | >3.4 | 3190 nM | >4.8 | Non-toxic
c1ccc(C2OOC3(CCCCC3)OO2)cc1 |  |  | 2200 nM | >9.2 | 1820 nM | >11.1 | Non-toxic
Clc1cccc(C2OOC3(CCCCC3)OO2)c1 |  |  | 2140 nM | >8.2 | 2470 nM | >7.1 | Non-toxic
Brc1ccccc1C1OOC(c2ccccc2Br)OO1 (stereo not given) | inactive | inactive |  |  |  |  | 
Clc1ccc(C2OOC3(CCCCCC3)OO2)cc1 |  |  | 16700 nM | >1 | 16700 nM | >1 | Non-toxic
c1ccc(C2OOC3(CCCCCC3)OO2)cc1 |  |  | 9990 nM | >1.9 | 7590 nM | >2.5 | Non-toxic
Clc1ccccc1C1OOC(c2ccccc2Cl)OO1 (stereo not given) | inactive | inactive |  |  |  |  | 
Cc1cccc(C2OOC(c3cccc(C)c3)OO2)c1 (stereo not given) |  |  | 960 nM | >18.2 | 770 nM | >22.7 | Non-toxic
Brc1ccc(C2OOC3(CCCCC3)OO2)cc1 |  |  | 3810 nM | >4 | 5390 nM | >2.8 | Non-toxic
Clc1cccc(C2OOC(c3cccc(Cl)c3)OO2)c1 (stereo not given) |  |  | 1370 nM | >11.1 | 700 nM | >21.6 | Non-toxic
Brc1ccc(C2OOC3(CCCCCC3)OO2)cc1 | inactive | inactive |  |  |  |  | 
Cc1ccccc1C1OOC(c2ccccc2C)OO1 (stereo not given) |  |  | 2460 nM | >7.1 | 1290 nM | >13.6 | Non-toxic
Clc1ccc(C2OOC3(CCCCC3)OO2)cc1 |  |  | 2660 nM | >6.6 | 2590 nM | >6.8 | Non-toxic
Clc1ccccc1C1OOC2(CCCCC2)OO1 |  |  | 14000 nM | >1.3 | 9240 nM | >1.9 | Non-toxic
Cc1ccc(C2OOC(c3ccc(C)cc3)OO2)cc1 (stereo not given) |  |  | 1470 nM | >11.9 | 1180 nM | >14.9 | Non-toxic
Brc1cccc(C2OOC(c3cccc(Br)c3)OO2)c1 (stereo not given) | inactive | inactive |  |  |  |  | 
Brc1ccc(C2OOC(c3ccc(Br)cc3)OO2)cc1 (stereo not given) |  |  | 1390 nM | >8.5 | 670 nM | >13.6 | Non-toxic
C[C@@H]1CC[C@H]2[C@@H](C)C(=O)O[C@@H]3O[C@@]4(C)CC[C@@H]1[C@]32OO4 [ARTEMISININ] |  |  | 35 nM | >476 | 15 nM | >1400 | Non-toxic
FC(F)(F)c1cccc(C2OOC(c3cccc(C(F)(F)F)c3)OO2)c1 (stereo not given) | inactive | inactive |  |  |  |  | 
Clc1ccc(C2OOC3(CCCC3)OO2)cc1 |  |  | 16700 nM | >1 | 16700 nM | >1 | Non-toxic
CCN(CC)CCCC(C)Nc1ccnc2cc(Cl)ccc12 (stereo not given) [CHLOROQUINE] |  |  |  |  |  |  | Non-toxic
Fc1ccc(C2OOC(c3ccc(F)cc3)OO2)cc1 (stereo not given) |  |  | 1640 nM | >10.4 | 1140 nM | >14.9 | Non-toxic
